From paper PMC9913425, “Pentacyclic Triterpenoids-Based Ionic Compounds: Synthesis, Study of Structure–Antitumor Activity Relationship, Effects on Mitochondria and Activation of Signaling Pathways of Proliferation, Genome Reparation and Early Apoptosis” (Cancers, 2023) come the findings set out here.

One may read the IC50 as the concentration needed to halve the response being measured. Low values mean greater potency in that assay, high ones weaker potency in that assay.

The test system of one data set is HEK293. The experiment in a line: In vitro cytotoxicity, IC50 by flow cytometry (Guava ViaCount). In kind it is cell-based. To be noted: conditionally normal. In short, it runs like this: (§1)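 Suspension lines kept in RPMI 1640 with 10% FBS and […] at 37 °C, 5% CO2; cells seeded at 5 × 10^4 per well and incubated overnight before compound exposure. Viability counted by flow cytometry with Guava ViaCount staining to derive IC50.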

The subject of a further data set is Jurkat. The description is as above. In kind it is cell-based. The note with it: Jurkat cells. The method, boiled down:
(§2)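 Cells were grown at 37 °C under 5% CO2; the Jurkat, K562 and HL60 lines were kept in RPMI 1640 with 10% FBS, […] and penicillin–streptomycin. Cells were seeded at 5 × 10^4 per well and incubated overnight. IC50 was derived from Guava ViaCount flow cytometry.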

The subject of another data set is K562. The data set is described as above. In kind it is cell-based. In short, it runs like this:
as §2

The test system of a further data set is U937. The description is as above. It counts as cell-based. The method, boiled down: as §1
The test system of the next data set is A2780. Described as above. In kind it is cell-based, human. The method, boiled down:
as §1

In a further data set the test system is HL60. The data set is described as above. In kind it is cell-based, human. The method, boiled down:
as §2

The test system of data set [1] is mitochondria of Jurkat tumor cells. The experiment in a line: Mitochondrial damage (MitoSense Red staining). In kind it is cell-based. To be noted: compound at IC50 concentration, incubation 2 h.
The test system of another data set is STAT5. The experiment in a line: Luminex xMAP Multi-Pathway 9-plex, tyrosine-phosphorylated STAT5. It counts as cell-based. To be noted: Jurkat cells; 12a 0.006 µM, 13d 0.004 µM per 100,000 cells; lasting up to 12 h. The source says:
(§3) The determination of proteins in a cell by Luminex xMAP technology is characterized by the presence of multiplex multiparametric analysis with the simultaneous use of a multiplex of antibodies with a fluorescent label and magnetic particles, thereby resulting in an increase in the sensitivity of the technique and expansion of the dynamic range, as well as an increase in detection accuracy. Luminex XMAP technology provides a simultaneous analysis of a sufficient number of different proteins in various types of biological fluids (plasma, serum, cerebrospinal fluid, follicular fluid, tissue lysate, etc.) and in cell supernatants. […]
(§4) Magnetic microspheres (stained inside with two fluorescent dyes) in combination with monoclonal antibodies against the analyzed analytes (the main intracellular kinases in this case) are incubated with the samples and standards; then, the samples/standards are incubated with biotinylated monoclonal antibodies against the analyzed analytes and, finally, with a solution of streptavidin–phycoerythrin. The Luminex technology identifies the different proteins present in each well and converts the mean fluorescence intensity (MFI) of each measured cytokine to pg/mL using software and standard curves. […]
(§5) The specific role of STAT3 and STAT5 was assessed by changes in the content of tyrosine-phosphorylated forms of these proteins (STAT3(ph) and STAT5(ph)). […]

Another data set has as its system STAT3. The experiment in a line: Luminex xMAP Multi-Pathway 9-plex, tyrosine-phosphorylated STAT3. It counts as cell-based. The note with it: Jurkat cells; 12a 0.006 µM, 13d 0.004 µM per 100,000 cells; up to 12 h; compared with STAT5 (3-fold).
Excerpt: as §3, §4, §5

A further data set has as its system ATR kinase. The experiment in a line: Luminex xMAP DNA Damage/Genotoxicity panel, ATR kinase content. The note with it: Jurkat cells; 12a 0.006 µM, 13d 0.004 µM per 100,000 cells; 6 and 12 h. In kind it is cell-based.
The subject of the next data set is Chk1. The experiment in a line: Luminex xMAP DNA Damage/Genotoxicity panel, phosphorylated Chk1. It counts as cell-based. The note with it: Jurkat cells; 12a 0.006 µM, 13d 0.004 µM per 100,000 cells; 6 and 12 h. The text has this:
[Worded in the source for another target; used here, by the source, with some conditions changed.] (§6) The determination of proteins in a cell by Luminex xMAP technology is characterized by the presence of multiplex multiparametric analysis with the simultaneous use of a multiplex of antibodies with a fluorescent label and magnetic particles, thereby resulting in an increase in the sensitivity of the technique and expansion of the dynamic range, as well as an increase in detection accuracy. Luminex XMAP technology provides a simultaneous analysis of a sufficient number of different proteins in various types of biological fluids (plasma, serum, cerebrospinal fluid, follicular fluid, tissue lysate, etc.) and in cell supernatants. Consequently, multiplexing saves time/costs and ensures the same conditions for the measurements, which is essential for significance and statistical processing.
(§7) Magnetic microspheres (stained inside with two fluorescent dyes) in combination with monoclonal antibodies against the analyzed analytes (the main intracellular kinases in this case) are incubated with the samples and standards; then, the samples/standards are incubated with biotinylated monoclonal antibodies against the analyzed analytes and, finally, with a solution of streptavidin–phycoerythrin. The Luminex technology identifies the different proteins present in each well and converts the mean fluorescence intensity (MFI) of each measured cytokine to pg/mL using software and standard curves. This approach is successfully applied in fundamental and clinical research. In this work, we analyzed various protein analytes that make up the phosphorylated and non-phosphorylated fractions of the main kinases in the signaling pathways: CREB, JNK, NFkB, p38, ERK1/2, Akt, p70S6K, STAT3, STAT5 proteins in six samples of lysates of Jurkat tumor cells by Luminex technology (MILLIPLEX® MAP 9-Plex Multi-Pathway 9-plex Magnetic Bead Kit).

Another data set concerns Chk2. The experiment in a line: Luminex xMAP DNA Damage/Genotoxicity panel, phosphorylated Chk2. It counts as cell-based. To be noted: Jurkat cells; 12a 0.006 µM, 13d 0.004 µM per 100,000 cells; 6 and 12 h.
Excerpt: [Worded in the source for another target; used here, by the source, with some conditions changed.] as §6, §7

In the next data set the test system is γH2AX. The experiment in a line: Luminex xMAP DNA Damage/Genotoxicity panel, phosphorylated γH2AX. In kind it is cell-based. The note with it: Jurkat cells; 6 and 12 h.
Excerpt: as §6, with “processing. Simultaneous measurement of cytokines by bead multiplex analysis has certain similarities with ELISA, in particular the use of antibodies, but has a fundamental difference in using magnetic fluorescent beads coupled to antikinase monoclonal antibodies.” for “processing.”
as §7
Phosphorylation of histone H2AX at serine 139 (γH2AX) is an early stage in the cellular response to DNA damage, when the damage brings about formation of a double-strand break (DSB). γH2AX foci, considered as markers of DNA double-strand breaks, are easily detected by immunofluorescence microscopy and flow cytometry. The two main signaling pathways ATM/Chk2 and ATR/Chk1 respond to DNA damage and both lead to H2AX phosphorylation, but the ATR/Chk1 pathway causes γH2AX formation to a much lesser extent. The role of γH2AX in DNA repair is also discussed.
Incubation time with the test compounds was 6 and 12 h. p < 0.001 (***).

Another data set concerns p21. The experiment in a line: Luminex xMAP panel, p21 protein content. It counts as cell-based. The note with it: Jurkat cells; 12a 0.006 µM, 13d 0.004 µM per 100,000 cells; first 6 h.

As to `CC1(C)CC[C@]2(C(=O)OCCCCCC[n+]3ccccc3)CC[C@]3(C)C(=CCC4[C@@]5(C)CC[C@H](O)C(C)(C)C5CC[C@]43C)C2C1` (stereo partly drawn) [12a, 1-(6-{[(3β)-3-Hydroxyolean-12-en-28-oyl]oxy}hexyl)-pyridinium bromide], the IC50 in the data set on HEK293 (Homo sapiens, HEK293, HEK293 cells) was 44 ± 4 nM; in the data set with Jurkat (Homo sapiens, Jurkat), 6 ± 1 nM; with K562 (Homo sapiens, K562, K562 cells), 7 ± 1 nM; in the data set with U937 (Homo sapiens, U-937, U937 cells), 6 ± 1 nM; with A2780 (Homo sapiens, A2780, A2780 cells), 21 ± 2 nM; in the data set with HL60 (Homo sapiens, HL-60, HL60 cells) it was 3 ± 1 nM. Moreover, in data set [1], the “Mito-Damage (%)” value was determined as 97.89%. For the same molecule, the “increase in the content of STAT5” value in the data set with STAT5 was determined as 3 fold. The “increase in the content of STAT3” value with STAT3 is “to a lesser extent”. Also, the “level of ATR kinase” value with ATR kinase was “significant increase”. Also, the “content of phosphorylated checkpoint kinase Chk1” value in the data set with Chk1 is “significantly decreases”. For the same molecule, in the data set on Chk2, the “content of phosphorylated checkpoint kinase Chk2” value is listed as “significantly decreases”. Further, the “level of γH2AX (accumulation)” value in the data set on γH2AX is reported as “low levels”. In addition, in the data set with p21, the “expression of p21 protein” value is “significantly increased”.
Regarding `CC(=O)[O-].C[n+]1ccn(CCCCCCOC(=O)[C@]23CCC(C)(C)CC2C2=CCC4[C@@]5(C)CC[C@H](O)C(C)(C)C5CC[C@@]4(C)[C@]2(C)CC3)c1` (stereo partly drawn) [13d, 1-(6-{[(3β)-3-Hydroxyolean-12-en-28-oyl]oxy}hexyl)-3-methylimidazolium Acetate], the IC50 was 29 ± 2 nM with HEK293 (HEK293 cells); 4 ± 1 nM in the data set on Jurkat; 6 ± 1 nM in the data set on K562 (K562 cells); 5 ± 1 nM with U937 (U937 cells); 16 ± 2 nM in the data set on A2780 (A2780 cells); 2 ± 1 nM with HL60 (HL60 cells). Further, the “Mito-Damage (%)” value in data set [1] came out at 97.47%. Besides, the “increase in the content of STAT5” value in the data set with STAT5 amounted to 3 fold. For the same molecule, in the data set with STAT3, the “increase in the content of STAT3” value is recorded as “to a lesser extent”. In the data set with ATR kinase, the “level of ATR kinase” value is recorded as “significant increase”. Further, the “content of phosphorylated checkpoint kinase Chk1” value with Chk1 was “significantly decreases”. Further, the “content of phosphorylated checkpoint kinase Chk2” value with Chk2 is listed as “significantly decreases”. Also, the “level of γH2AX (accumulation)” value with γH2AX was “low levels”. In the data set on p21, the “expression of p21 protein” value is “significantly increased”.
